Where “and” joins values, the source holds several entries; their conditions need not be identical. Equal entries are not always repeated.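 Five concentrations, 48 hours, 96-well plates. GI50 = concentration required for 50% inhibition of growth. The concentration for full growth arrest is given as TGI.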
Key:
Experiment in all cases: growth of human tumour cells (NCI), 48 h
HCT-15 colon = tested on: HCT-15 colon
K-562 leukemia = tested on: K-562 leukemia
KM20L2 colon = tested on: KM20L2 colon
MOLT-4 leukemia = tested on: MOLT-4 leukemia
NCI-H226 lung = tested on: NCI-H226 lung
SF-539 CNS = tested on: SF-539 CNS
SK-MEL-5 melanoma = tested on: SK-MEL-5 melanoma
SNB-78 CNS = tested on: SNB-78 CNS
TK-10 renal = tested on: TK-10 renal
UACC-62 melanoma = tested on: UACC-62 melanoma

| SMILES | TGI (HCT-15 colon) | TGI (K-562 leukemia) | TGI (KM20L2 colon) | TGI (MOLT-4 leukemia) | TGI (NCI-H226 lung) | TGI (SF-539 CNS) | TGI (SK-MEL-5 melanoma) | TGI (SNB-78 CNS) | TGI (TK-10 renal) | TGI (UACC-62 melanoma) | GI50 (HCT-15 colon) | GI50 (K-562 leukemia) | GI50 (MOLT-4 leukemia) | GI50 (SK-MEL-5 melanoma) | GI50 (TK-10 renal) | GI50 (UACC-62 melanoma) |
| --- | --- | --- | --- | --- | --- | --- | --- | --- | --- | --- | --- | --- | --- | --- | --- | --- |
| [N-]=[N+]=Nc1ccc(CCN2CCN(c3cccc(C(F)(F)F)c3)CC2)cc1I | > 100 µM | > 100 µM | > 100 µM | > 100 µM | > 100 µM | > 100 µM | > 100 µM | > 100 µM | > 100 µM | > 100 µM | – | – | – | – | – | – |
| CCC1=C(C)/C(=C/c2[nH]c(C(Br)Br)c(CC)c2C)N=C1C(Br)Br | > 100 µM | > 100 µM | > 100 µM | 27.4 µM | 90.1 µM | > 100 µM | 32.1 µM | > 100 µM | > 100 µM | > 100 µM | – | – | – | – | – | – |
| O=C(O)C1CCc2nnc(-c3ccccc3)n21 (stereo unspecified) | > 100 µM | > 100 µM | > 100 µM | > 100 µM | > 100 µM | > 100 µM | > 100 µM | > 100 µM | > 100 µM | > 100 µM | – | – | – | – | – | – |
| COc1c(C2=NC(C(C)C)CO2)ccc2ccccc12 (stereo unspecified) | > 100 µM | > 100 µM | > 100 µM | 50.3 µM | > 100 µM | > 100 µM | 36.3 µM | > 100 µM | > 100 µM | > 100 µM | – | – | – | – | – | – |
| NC(C/[N+]([O-])=N/O)C(=O)O (stereo unspecified) | > 100 µM and 329 µM | > 419 µM | > 500 µM | > 100 µM and 315 µM | > 468 µM | > 100 µM and 366 µM | > 42.7 µM and > 100 µM and 114 µM | > 500 µM | > 459 µM | > 100 µM and 81.9 µM | 3.65 µM and 6.69 µM and 1.8 µM | 29.5 µM and 11.2 µM and 15 µM | 23.3 µM | 1.9 µM and 8.31 µM and 1.46 µM | > 66.2 µM and > 100 µM and 30.9 µM | 6.05 µM and 7.49 µM and 3.12 µM |
| Nc1ncnc2c1ncn2C1OC(CSC(F)(F)F)C(O)C1O (stereo unspecified) | > 100 µM | > 100 µM | > 100 µM | > 100 µM | > 100 µM | > 100 µM | > 100 µM | > 100 µM | > 100 µM | > 100 µM | – | – | – | – | – | – |
| CC1(C)C(c2ccccc2)C12CCC1(C2=O)C(c2ccccc2)C1(C)C (stereo unspecified) | 51.8 µM | 38.4 µM | 52.9 µM | 37.2 µM | 36.3 µM | 75.2 µM | 37.9 µM | 62.4 µM | > 100 µM | > 100 µM | – | – | – | – | – | – |
| Cc1cc(=O)n(-c2ccccc2)c(=O)o1 | > 100 µM | > 100 µM | > 100 µM | > 100 µM | > 100 µM | > 100 µM | > 100 µM | > 100 µM | > 100 µM | > 100 µM | – | – | – | – | – | – |
| CC1(C)CCC[C@@]2(C)C1C[C@H](O)[C@@]1(C)O[C@@](C)([C@H](O)CO)CCC21 (stereo partly specified) | > 100 µM | > 100 µM | > 100 µM | 62 µM | > 100 µM | > 100 µM | 44 µM | > 100 µM | > 100 µM | 96.1 µM | – | – | – | – | – | – |

— PubChem BioAssay (NCI)
